Data published in patent publication US8779202B2, “Compositions and methods for the treatment of giardiasis” (Georgetown University, priority 2009, dated 2014).

Legend:
[1] = tested on: Giardia parasite cultures; assay: Reversibility of compound effect on Giardia viability and attachment; format: cell-based, Giardia lamblia; details: 15 μM, 30 minutes-2 hours in PBS at 37° C., wash, 48 hours in growth media
Description: Parasite cultures were treated for 30 minutes—2 hours with 15 μM of Compounds I-16, III-1, IV-1, V-1, VI-1, VII-1, and VIII-2A in PBS at 37° C. Parasites were then washed with warm PBS to remove compounds, and were placed in normal Giardia growth media for an additional 48 hours. […] All comparisons were made to cultures of untreated Giardia.

Giardia parasites = assay: Video microscopy of parasite morphology and dynamics; format: cell-based, Giardia lamblia; details: for Observed Parasite Morphology and Dynamics: Table I, video microscopy at 50, 15, 10, 5 and 1 μM
Description: A series of video microscopy studies were undertaken to examine the effect of the compounds on parasite morphology and dynamics. Short 1 minute videos of parasite behavior were recorded using DIC optics on a Zeiss AXIOPLAN microscope (Carl Zeiss Microimaging GmbH, Germany) using a Photometrics CCD camera (Photometrics, Inc.; Tucson, Ariz.). Recordings were made on at least three separate occasions at compound concentrations of 50 μM, 15 μM, 10 μM, 5 μM, and 1 μM to allow comparison to the dose-response curves in the attachment assay. Four broad categories of compound action were found (see Table I).

| Compound | reversibility of effect on parasite attachment and viability [1] | effect on parasite morphology and activity (Giardia parasites) | Observed Parasite Morphology and Dynamics (Giardia parasites) |
| --- | --- | --- | --- |
| Oc1ccc2ccccc2c1CN(Cc1c(O)ccc2ccccc12)C1CCCCC1 [Compound I-16] | largely reversible | no observable effect on parasite morphology and activity, but did significantly reduce attachment | Parasites appear normal in morphology and activity, |
| CC(Br)C(=O)c1ccc2cc(Br)c3ccccc3c2c1 (centres unmarked) [Compound III-1] | irreversible | profoundly disrupted parasite morphology or simply destroyed the parasites | Parasites display a profoundly disrupted morphology |
| O=C1C=C(N2CCN(c3ccccn3)CC2)C(=O)c2c(O)ccc(O)c21 [Compound IV-1] | irreversible | profoundly disrupted parasite morphology or simply destroyed the parasites | Parasites display a profoundly disrupted morphology |
| Nc1nc(SCc2ccccc2[N+](=O)[O-])c2[nH]cnc2n1 [Compound V-1] | largely reversible | disrupted peripheral morphology, resulting either in loss of overall shape or localized membrane blebbing |  |
| Cc1c(Cl)cc(C(C)(C)C)c(O)c1Cc1c(C)c(Cl)cc(C(C)(C)C)c1O [Compound VI-1] | largely reversible | disrupted peripheral morphology, resulting either in loss of overall shape or localized membrane blebbing | Parasites display disrupted peripheral morphology, |
| C[C@H]1CC[C@@H]2[C@@H](C)[C@H]3[C@H](C[C@H]4[C@@H]5CC=C6C[C@@H](O)CC[C@]6(C)[C@H]5CC[C@]34C)N2C1 [Compound VIII-2A] | largely reversible | no observable effect on parasite morphology and activity, but did significantly reduce attachment | Parasites appear normal in morphology and activity, |
| Nogalamycin [Compound VII-1] | largely reversible | no observable effect on Giardia morphology, but did cause flagellar paralysis | Parasites display disrupted peripheral morphology, |
